Starred links: 1 amine or outer side, 2 acyl side, 3 side chain; linkers in the order of their positions; H or OH if unused. Positions of bridges follow the written chain, without caps; N, C: chain ends. Non-standard residues stand in square brackets, D forms with d. Residues, ends and D or L forms follow the SMILES beside them. ξ: configuration not given here. Phe(3-(4R-CO-2-thiazolinyl)) = O=C([C@H](Cc1cccc(C2=N[C@H](C(=O)[*:3])CS2)c1)N[*:1])[*:2]; Nle = CCCC[C@H](N)C(=O)O; ξL = CC(C)CC(N)C(=O)O
Experiment: Membrane permeability of synthesized cyclic peptides by PAMPA (Measurement Method A: 1 μmol/L; Method B: 10 μmol/L)
Type: in vitro ADME
Details: Measurement method A, 25° C., 4 hours
Procedure: Evaluation of membrane permeability of synthesized cyclic peptide by PAMPA method In order to compare and examine the membrane permeability of the synthesized cyclic peptide, parallel artificial membrane permeability assay (PAMPA) was carried out.
An artificial phospholipid membrane was produced by adding 5 μL of a phospholipid organic solvent solution consisting of L-α-phosphatidylcholine (Avanti Polar Lipids, Inc., Cat. 840051P, 1.67%), 1,2-dioleoyl-sn-glycero-3-phospho-L-serine (Avanti Polar Lipids, Inc., Cat. 840035P, 0.33%), and n-dodecane special grade (Wako Pure Chemical Industries, Ltd., 047-21612)/1-octanol reagent special grade (Kanto Chemical Co., Inc., Cat. 31013-08)=10:1 to Filter Plate (Merck Millipore Corporation, Cat. MAIPN4550).
475 μL of 50 mmol/L potassium phosphate buffer (KPB, pH 7.4 or pH 6.5) was added to 25 μL of a DMSO solution containing the compound at a concentration of 20 μmol/L, so that the compound was diluted to a final concentration of 1 μmol/L. 300 μL of the compound solution was added to the lower side (donor side) of PAMPA 96-well plate (Filter Plate (Merck Millipore Corporation, Cat. MAIPN4550)) with an artificial phospholipid membrane being interposed therebetween. 200 μL of 5% DMSO KPB (pH 7.4) was added to the upper side (acceptor side) with the artificial phospholipid membrane being interposed therebetween. A permeation test through an artificial phospholipid membrane was carried out at 25° C. for 4 hours. The compound concentration in the solution in the donor plate and the acceptor plate was measured by LC/MS/MS, and the membrane permeation rate (Pe) of the compound was calculated from the following formula, assuming that C0 is an initial compound concentration in donor solution, t is a test time, A is a membrane filter area=0.3 cm^2, VD is a donor solution amount=300 μL, VA is an acceptor solution amount=200 μL, and CD(t) is a compound concentration in donor solution at time t, CA(t) is a compound concentration in acceptor solution at time t, and Cequilibrium=[CD(t)*VD+CA(t)*VA]/(VD+VA).
475 μL of 50 mmol/L potassium phosphate buffer (KPB, pH 7.4 or pH 6.5) was added to 25 μL of a DMSO solution containing the compound at a concentration of […], so that the compound was diluted to a final concentration of 10 μmol/L. The compound solution was added 300 μL each to the lower side (donor side) of an artificial phospholipid membrane of PAMPA 96-well plate (Filter Plate (Merck Millipore Corporation, Cat. MAIPN4550)). 200 μL of 5% DMSO KPB (pH 7.4) was added to the upper side (acceptor side) with the artificial phospholipid membrane being interposed therebetween. A permeation test through an artificial phospholipid membrane was carried out at 25° C. for 4 hours. The compound concentration in the solution in the donor plate and the acceptor plate was measured by LC/MS/MS, and the membrane permeation rate (Pe) of the compound was calculated from the following formula, assuming that Co is an initial compound concentration in donor solution, t is a test time, A is a membrane filter area=0.3 cm^2, VD is a donor solution amount=300 μL, VA is an acceptor solution amount=200 μL, and CD(t) is a compound concentration in donor solution at time t, CA(t) is a compound concentration in acceptor solution at time t, and Cequilibrium=[CD(t)*VD+CA(t)*VA]/(VD+VA).
The membrane permeability (Pe(10^−6 cm/s)) obtained by this method is described in the following table.
Evaluation standards are as follows.

Row | SMILES | Pe(10^−6 cm/sec)
1 | CC(=O)N[C@H]1CSSC[C@@H](C(N)=O)NC(=O)[C@@H](CCC(=O)O)NC(=O)[C@@H](Cc2c[nH]c3ccccc23)NC(=O)[C@H](CC(C)C)NC(=O)[C@@H](C(C)C)NC1=O [9-2] (Ac-C[dV]L[dW][dE]C-NH2; disulfide 1-6) | + (0.01<Pe (10^−6 cm/s)≤0.2)
2 | CCCC[C@@H]1NC(=O)[C@H](CCCCN)NC(=O)C(CC(C)C)NC(=O)[C@H](CC(C)C)NC(=O)[C@@H]2CSC(=N2)c2cc(cs2)C[C@@H](C(N)=O)NC(=O)C(Cc2ccccc2)NC(=O)[C@H](CO)NC(=O)[C@H](C)NC(=O)[C@@H]2CCCN2C1=O (some centres unmarked) [4-9] | + (0.01<Pe (10^−6 cm/s)≤0.2)
3 | CC(C)C[C@@H]1NC(=O)[C@@H](C(C)C)NC(=O)[C@H](C)NC(=O)CC[C@@H](C(N)=O)NC(=O)[C@@H](CCC(=O)O)NC(=O)[C@@H](Cc2c[nH]c3ccccc23)NC1=O [8-3] (A[dV]L[dW][dE]E-NH2; lactam N-6) | − (0.01≤Pe (10^−6 cm/s))
4 | CC(C)C[C@@H]1NC(=O)[C@@H](C(C)C)NC(=O)[C@H](C)NC(=O)Cn2cc(nn2)C[C@@H](C(N)=O)NC(=O)[C@@H](CCC(=O)O)NC(=O)[C@@H](Cc2c[nH]c3ccccc23)NC1=O [10-3] | − (0.01≤Pe (10^−6 cm/s))
5 | C[C@@H]1NC(=O)CSC[C@@H](C(N)=O)NC(=O)[C@H]([C@@H](C)O)NC(=O)[C@H](CCCCN)NC(=O)[C@@H](Cc2c[nH]c3ccccc23)NC(=O)[C@H](Cc2ccccc2)NC1=O [7-3] ({CH2CO}-AF[dW]KTC-NH2; thioether N-6) | − (0.01≤Pe (10^−6 cm/s))
6 | CC(C)C[C@@H]1NC(=O)[C@@H](C(C)C)NC(=O)[C@@H]2CSC(=N2)c2cc(cs2)C[C@@H](C(N)=O)NC(=O)[C@@H](CCC(=O)O)NC(=O)[C@@H](Cc2c[nH]c3ccccc23)NC1=O [4-4] | ++ (0.2<Pe (10^−6 cm/s)≤0.5)
7 | N=C(N)NCCC[C@@H]1NC(=O)[C@H](Cc2c[nH]c3ccccc23)NC(=O)[C@@H](CC2CCCCC2)NC(=O)[C@@H]2CCCN2C(=O)[C@@H]2CSC(=N2)c2ccc(cc2)[C@@H](C(N)=O)NC1=O [a-1-19] | +++ (0.5<Pe (10^−6 cm/s))
8 | NC(=O)[C@@H]1Cc2csc(c2)C2=N[C@@H](CCS2)C(=O)N[C@H](Cc2ccc(O)cc2)C(=O)NCC(=O)NCC(=O)N[C@H](Cc2ccccc2)C(=O)N1 [4-2] | +++ (0.5<Pe (10^−6 cm/s))
9 | N=C(N)NCCC[C@@H]1NC(=O)[C@H](Cc2c[nH]c3ccccc23)NC(=O)[C@@H](CC2CCCCC2)NC(=O)[C@@H]2CCCN2C(=O)[C@@H]2CSC(=N2)c2csc(n2)-c2csc(n2)C[C@@H](C(N)=O)NC1=O [a-1-11] | +++ (0.5<Pe (10^−6 cm/s))
10 | CCCC[C@@H]1NC(=O)[C@H](CCCCN)NC(=O)C(CC(C)C)NC(=O)[C@H](CC(C)C)NC(=O)[C@@H]2CSC(=N2)c2cc(cs2)C[C@@H](C(N)=O)NC(=O)C(Cc2ccccc2)NC(=O)[C@H](C)NC(=O)[C@H](C)NC(=O)[C@@H]2CCCN2C1=O (some centres unmarked) [4-8] | ++ (0.2<Pe (10^−6 cm/s)≤0.5)
11 | CC(=O)N[C@H]1CSSC[C@@H](C(N)=O)NC(=O)[C@H]([C@@H](C)O)NC(=O)[C@H](CCCCN)NC(=O)[C@@H](Cc2c[nH]c3ccccc23)NC(=O)[C@H](Cc2ccccc2)NC1=O [9-3] (Ac-CF[dW]KTC-NH2; disulfide 1-6) | Below the limit
12 | CCCC[C@@H]1NC(=O)[C@H](CCCCN)NC(=O)[C@H](CC(C)C)NC(=O)[C@H](CC(C)C)NC(=O)[C@@H](NC(C)=O)CSSC[C@@H](C(N)=O)NC(=O)[C@H](Cc2ccccc2)NC(=O)[C@H](C)NC(=O)[C@H](C)NC(=O)[C@@H]2CCCN2C1=O [9-4] (Ac-CLLK[Nle]PAAFC-NH2; disulfide 1-10) | Below the limit
13 | N=C(N)NCCC[C@@H]1NC(=O)[C@H](Cc2c[nH]c3ccccc23)NC(=O)[C@@H](CC2CCCCC2)NC(=O)[C@@H]2CCCN2C(=O)[C@@H]2CSC(=N2)c2cn(nn2)C[C@@H](C(N)=O)NC1=O [a-1-2] | ++ (0.2<Pe (10^−6 cm/s)≤0.5)
14 | C[C@@]12CSC(=N1)c1cc(cs1)C[C@@H](C(N)=O)NC(=O)[C@H](CCCNC(=N)N)NC(=O)[C@H](Cc1c[nH]c3ccccc13)NC(=O)[C@@H](CC1CCCCC1)NC(=O)C1CCCN1C2=O (some centres unmarked) [a-1-1] | +++ (0.5<Pe (10^−6 cm/s))
15 | N=C(N)NCCC[C@@H]1NC(=O)[C@H](Cc2c[nH]c3ccccc23)NC(=O)[C@@H](CC2CCCCC2)NC(=O)[C@@H]2CCCN2C(=O)[C@@H]2CSC(=N2)c2coc(n2)-c2csc(n2)C[C@@H](C(N)=O)NC1=O [a-1-10] | +++ (0.5<Pe (10^−6 cm/s))
16 | N=C(N)NCCC[C@@H]1NC(=O)[C@H](Cc2c[nH]c3ccccc23)NC(=O)[C@@H](CC2CCCCC2)NC(=O)[C@@H]2CCCN2C(=O)[C@@H]2CSC(=N2)c2ccc(s2)C(=O)NCCOCCOCCOCCOc2ccc(cc2)C[C@@H](C(N)=O)NC1=O [a-1-9] | +++ (0.5<Pe (10^−6 cm/s))
17 | N=C(N)NCCC[C@@H]1NC(=O)[C@H](Cc2c[nH]c3ccccc23)NC(=O)[C@@H](CC2CCCCC2)NC(=O)[C@@H]2CCCN2C(=O)[C@@H]2CSC(=N2)C2=Cc3ccc(cc3S2)C[C@@H](C(N)=O)NC1=O [2-2] | +++ (0.5<Pe (10^−6 cm/s))
18 | N=C(N)NCCC[C@@H]1NC(=O)[C@H](Cc2c[nH]c3ccccc23)NC(=O)[C@@H](CC2CCCCC2)NC(=O)[C@@H]2CCCN2C(=O)[C@@H]2CSC(=N2)c2cc(on2)C[C@@H](C(N)=O)NC1=O [a-1-6] | +++ (0.5<Pe (10^−6 cm/s))
19 | NC(=O)[C@@H]1Cc2csc(c2)C2=N[C@@H](CS2)C(=O)N[C@H](Cc2ccc(O)cc2)C(=O)NCC(=O)NCC(=O)N[C@H](Cc2ccccc2)C(=O)N1 [4-3] | +++ (0.5<Pe (10^−6 cm/s))
20 | CCCC[C@@H]1NC(=O)[C@H](CCCCN)NC(=O)[C@H](CC(C)C)NC(=O)[C@H](CC(C)C)NC(=O)[C@H](C)NC(=O)CSC[C@@H](C(N)=O)NC(=O)[C@H](Cc2ccccc2)NC(=O)[C@H](CO)NC(=O)[C@H](C)NC(=O)[C@@H]2CCCN2C1=O [7-6] ({CH2CO}-ALLK[Nle]PASFC-NH2; thioether N-10) | Below the limit
21 | N=C(N)NCCC[C@@H]1NC(=O)[C@H](Cc2c[nH]c3ccccc23)NC(=O)[C@@H](CC2CCCCC2)NC(=O)[C@@H]2CCCN2C(=O)[C@@H]2CSC(=N2)c2cnc3cc(ccc3c2)C[C@@H](C(N)=O)NC1=O [2-4] | +++ (0.5<Pe (10^−6 cm/s))

Same assay, conditions: Measurement method B (10 μmol/L), 25° C., 4 hours

Row | SMILES | Pe(10^−6 cm/sec)
22 | N=C(N)NCCC[C@@H]1NC(=O)[C@H](Cc2c[nH]c3ccccc23)NC(=O)[C@@H](CC2CCCCC2)NC(=O)[C@@H]2CCCN2C(=O)[C@@H]2CSC(=N2)c2cn3cc(ncc3n2)-c2cccc(c2)C[C@@H](C(N)=O)NC1=O [a-1-14] | +++ (0.5<Pe (10^−6 cm/s))
23 | N=C(N)NCCC[C@@H]1NC(=O)[C@H](Cc2c[nH]c3ccccc23)NC(=O)[C@@H](CC2CCCCC2)NC(=O)[C@@H]2CCCN2C(=O)[C@@H]2CSC(=N2)c2cn3cc(cnc3n2)-c2cccc(c2)C[C@@H](C(N)=O)NC1=O [a-1-16] | ++ (0.2<Pe (10^−6 cm/s)≤0.5)
24 | N=C(N)NCCC[C@@H]1NC(=O)[C@H](Cc2c[nH]c3ccccc23)NC(=O)[C@@H](CC2CCCCC2)NC(=O)[C@@H]2CCCN2C(=O)[C@@H]2CSC(=N2)c2cn3nc(ccc3n2)-c2cccc(c2)C[C@@H](C(N)=O)NC1=O [a-1-15] | ++ (0.2<Pe (10^−6 cm/s)≤0.5)
25 | CC(=O)N[C@H]1CCCCNC(=O)[C@@H]2CSC(=N2)c2cccc(c2)C[C@@H](C(N)=O)NC(=O)[C@H](C)NC(=O)C(CC(C)C)NC(=O)[C@H](CCCCN)NC(=O)[C@H](CC(C)C)NC(=O)[C@H](C)NC(=O)[C@H](CC(C)C)NC1=O (stereo partly drawn) [a-4-1] (Ac-KLALK[ξL]A[Phe(3-(4R-CO-2-thiazolinyl))]-NH2; lactam 1-8) | + (0.01<Pe (10^−6 cm/s)≤0.2)
26 | N=C(N)NCCC[C@@H]1NC(=O)[C@H](Cc2c[nH]c3ccccc23)NC(=O)[C@@H](CC2CCCCC2)NC(=O)[C@@H]2CCCN2C(=O)[C@@H]2CSC(=N2)c2cn(cn2)-c2ccc(cc2)C[C@@H](C(N)=O)NC1=O [a-1-5] | ++ (0.2<Pe (10^−6 cm/s)≤0.5)

— US11319347B2, “Peptide compound and method for producing same, composition for screening use, and method for selecting peptide compound” (FUJIFILM Corporation, priority 2017, dated 2022)
